Patent US9255094B2, “Pyrido[4,3-B]indoles and methods of use” (Medivation Technologies, Inc., priority 2009, dated 2016)

How the values were obtained:
[1] = target: T1, human recombinant serotonin (5-Hydroxytryptamine) 5-HT2A receptor (Homo sapiens, UniProt P28223); assay: Serotonin 5-HT2A radioligand binding assay ([3H]Ketanserin); settings: 0.5 nM [3H]Ketanserin, CHO-K1 cells; for inhibition at 1 µM: compound at 1 μM, read-out: Percent Inhibition of ligand binding, Serotonin (1 μM) 5-HT2A; for inhibition at 0.1 µM: compound at 0.1 μM, read-out: Percent Inhibition of ligand binding, Serotonin (0.1 μM) 5-HT2A
T1 construct: expressed in transfected cells; host or cells: Chinese hamster ovary (CHO-K1) cells
T1 sequence (P28223 whole entry): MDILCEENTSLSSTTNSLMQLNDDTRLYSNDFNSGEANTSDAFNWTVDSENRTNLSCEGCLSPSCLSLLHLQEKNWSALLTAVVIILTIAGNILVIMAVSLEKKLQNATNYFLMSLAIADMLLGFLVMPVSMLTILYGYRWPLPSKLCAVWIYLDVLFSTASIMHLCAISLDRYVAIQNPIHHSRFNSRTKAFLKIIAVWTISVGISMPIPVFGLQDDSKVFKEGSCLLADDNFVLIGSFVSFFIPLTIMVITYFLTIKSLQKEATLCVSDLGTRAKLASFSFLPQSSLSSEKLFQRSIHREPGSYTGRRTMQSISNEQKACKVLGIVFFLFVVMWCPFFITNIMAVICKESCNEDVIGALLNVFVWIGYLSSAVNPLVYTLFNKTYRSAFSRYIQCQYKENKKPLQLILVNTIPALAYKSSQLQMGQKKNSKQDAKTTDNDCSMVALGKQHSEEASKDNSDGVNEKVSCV
Procedure: (§1) Compounds of the invention were incubated with 0.5 nM [^3H]Ketanserin for 60 min at 25° C. Non-specific binding was estimated in the presence of 1 μM Mianserin. Receptor proteins were filtered and washed, the filters were then counted to determine [^3H]Ketanserin specifically bound. Compounds were screened at 1 μM or lower, using 1% DMSO as vehicle. Biochemical assay results are presented as the percent inhibition of specific binding in Table 4.

[2] = target: human recombinant serotonin (5-Hydroxytryptamine) 5-HT7 receptor (Homo sapiens, UniProt P34969); assay: Serotonin 5-HT7 radioligand binding assay ([3H]LSD); settings: compound at 0.1 μM; 5.5 nM [3H]LSD; CHO cells; read-out: Percent Inhibition of ligand binding, Serotonin (0.1 μM) 5-HT7
Chain of human recombinant serotonin (5-Hydroxytryptamine) 5-HT7 receptor (P34969 whole entry): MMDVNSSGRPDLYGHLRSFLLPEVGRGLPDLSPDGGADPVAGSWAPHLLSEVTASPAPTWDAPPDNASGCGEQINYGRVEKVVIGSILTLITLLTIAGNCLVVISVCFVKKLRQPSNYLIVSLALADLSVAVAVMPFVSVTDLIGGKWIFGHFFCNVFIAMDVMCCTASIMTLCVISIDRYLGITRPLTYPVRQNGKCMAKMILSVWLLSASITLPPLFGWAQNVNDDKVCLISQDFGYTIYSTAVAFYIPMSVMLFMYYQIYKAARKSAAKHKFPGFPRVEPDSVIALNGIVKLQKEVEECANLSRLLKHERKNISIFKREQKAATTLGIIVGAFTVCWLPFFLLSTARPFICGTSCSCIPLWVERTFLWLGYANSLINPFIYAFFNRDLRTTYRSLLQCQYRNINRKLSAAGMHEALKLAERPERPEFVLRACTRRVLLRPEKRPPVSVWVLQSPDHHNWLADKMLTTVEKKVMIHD
Procedure: Compounds of invention were incubated with 5.5 nM [^3H] Lysergic acid diethylamide (LSD) for 2 h at 25° C. […] Receptor proteins were filtered and washed, the filters were then counted to determine [^3H]LSD specifically bound. Compounds were screened at 1 μM or lower, using 1% DMSO as vehicle. Biochemical assay results are presented as the percent inhibition of specific binding in Table 4.

[3] = target: T2, human recombinant serotonin (5-Hydroxytryptamine) 5-HT6 receptor (Homo sapiens, UniProt P50406); assay: Serotonin 5-HT6 radioligand binding assay ([3H]LSD); settings: compound at 0.1 μM, HeLa cells, read-out: Percent Inhibition of ligand binding, Serotonin (0.1 μM) 5-HT6
T2 construct: expressed in transfected cells; host or cells: human HeLa cells
T2 sequence (P50406 whole entry): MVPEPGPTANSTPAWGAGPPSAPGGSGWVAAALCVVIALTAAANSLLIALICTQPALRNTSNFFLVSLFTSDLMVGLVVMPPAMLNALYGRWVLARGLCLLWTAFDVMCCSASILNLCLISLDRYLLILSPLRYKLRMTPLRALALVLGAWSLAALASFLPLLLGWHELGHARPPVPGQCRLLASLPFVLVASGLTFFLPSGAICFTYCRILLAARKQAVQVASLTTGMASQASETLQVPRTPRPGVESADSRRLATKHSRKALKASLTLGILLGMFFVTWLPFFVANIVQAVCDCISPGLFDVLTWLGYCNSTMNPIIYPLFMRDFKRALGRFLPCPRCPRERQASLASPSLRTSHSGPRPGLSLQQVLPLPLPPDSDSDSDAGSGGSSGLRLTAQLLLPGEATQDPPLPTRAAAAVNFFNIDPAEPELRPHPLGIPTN
Procedure: Compounds of the invention were incubated with 1.5 nM [3H]Lysergic acid diethylamide (LSD) for 120 min at 37° C. […] Receptor proteins were filtered and washed, the filters were then counted to determine [3H]LSD specifically bound. Compounds were screened at 1 μM or lower, using 1% DMSO as vehicle. Biochemical assay results are presented as the percent inhibition of specific binding in Table 4.

[4] = target: T3, human recombinant serotonin (5-Hydroxytryptamine) 5-HT2C receptor (Homo sapiens, UniProt P28335); assay: Serotonin 5-HT2C radioligand binding assay ([3H]Mesulergine); settings: compound at 0.1 μM; 1 nM [3H]Mesulergine; CHO-K1 cells; read-out: Percent Inhibition of ligand binding, Serotonin (0.1 μM) 5-HT2C
T3 construct: expressed in transfected cells; host or cells: Chinese hamster ovary (CHO-K1) cells
T3 sequence (P28335 33-458): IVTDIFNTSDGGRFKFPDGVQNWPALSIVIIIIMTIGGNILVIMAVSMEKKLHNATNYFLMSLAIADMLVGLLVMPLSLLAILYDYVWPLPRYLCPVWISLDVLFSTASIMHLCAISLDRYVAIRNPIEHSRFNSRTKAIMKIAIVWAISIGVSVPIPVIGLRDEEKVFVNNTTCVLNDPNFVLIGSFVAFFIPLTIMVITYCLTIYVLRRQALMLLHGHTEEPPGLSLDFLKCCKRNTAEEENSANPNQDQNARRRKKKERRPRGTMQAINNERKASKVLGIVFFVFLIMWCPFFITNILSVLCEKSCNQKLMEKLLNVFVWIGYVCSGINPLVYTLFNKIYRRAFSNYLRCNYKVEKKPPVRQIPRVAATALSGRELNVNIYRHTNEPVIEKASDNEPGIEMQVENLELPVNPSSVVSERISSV
Procedure: as §1, with “1” for “0.5”, “[^3H]Mesulergine” for “[^3H]Ketanserin”

Compound	inhibition at 1 µM [1] [%]	inhibition at 0.1 µM [1] [%]	also measured
CCC(O)(Cn1c2c(c3cc(C)ccc31)CN(C)CC2)c1ccc(F)cc1 (stereo not drawn) [Compound 1-5, 1-(2,8-dimethyl-3,4-dihydro-1H-pyrido[4,3-b]indol-5(2H)-yl)-2-(4-fluorophenyl)butan-2-ol]	102	–	–
Cc1ccc2c(c1)c1c(n2CC(C)(O)c2cnccn2)CCN(C)C1 (stereo not drawn) [Compound 1-28, 1-(2,8-dimethyl-3,4-dihydro-1H-pyrido[4,3-b]indol-5(2H)-yl)-2-(pyrazin-2-yl)propan-2-ol]	–	30	–
COc1ccc2c(c1)c1c(n2CC(C)(O)c2ccncc2)CCN(C)C1 (stereo not drawn) [Compound 1-16, 1-(8-methoxy-2-methyl-3,4-dihydro-1H-pyrido[4,3-b]indol-5(2H)-yl)-2-(pyridin-4-yl)propan-2-ol]	50	–	–
CC(C)C(O)(Cn1c2c(c3cc(Cl)ccc31)CN(C)CC2)c1ccncc1 (stereo not drawn) [Compound 1-21, 1-(8-chloro-2-methyl-3,4-dihydro-1H-pyrido[4,3-b]indol-5(2H)-yl)-3-methyl-2-(pyridin-4-yl)butan-2-ol]	–	68	–
COc1ccc(C(C)(O)Cn2c3c(c4cc(Cl)ccc42)CN(C)CC3)cc1F (stereo not drawn) [Compound 1-59, 1-(8-chloro-1,2,3,4-tetrahydro-2-methylpyrido[4,3-b]indol-5-yl)-2-(3-fluoro-4-methoxyphenyl)propan-2-ol]	96	–	–
CN1CCc2c(c3cc(F)ccc3n2CC(C)(O)c2ccncc2)C1 (stereo not drawn) [Compound 1-9, 1-(8-fluoro-2-methyl-3,4-dihydro-1H-pyrido[4,3-b]indol-5(2H)-yl)-2-(pyridin-4-yl)propan-2-ol]	77	–	–
Cc1ccc2c(c1)c1c(n2CC(C)(O)c2ccncc2)CC(C)N(C)C1 (stereo not drawn) [Compound 1-33, 2-(pyridin-4-yl)-1-(2,3,8-trimethyl-3,4-dihydro-1H-pyrido[4,3-b]indol-5(2H)-yl)propan-2-ol]	–	43	inhibition at 0.1 µM [2]: 40%; inhibition at 0.1 µM [3]: -1%; inhibition at 0.1 µM [4]: 56%
CN1CCc2c(c3ccc(Cl)cc3n2CC(C)(O)c2ccncc2)C1 (stereo not drawn) [Compound 1-12, 1-(7-chloro-2-methyl-3,4-dihydro-1H-pyrido[4,3-b]indol-5(2H)-yl)-2-(pyridin-4-yl)propan-2-ol]	82	–	–
CN1CCc2c(c3cccc(F)c3n2CC(C)(O)c2ccncc2)C1 (stereo not drawn) [Compound 1-13, 1-(6-fluoro-2-methyl-3,4-dihydro-1H-pyrido[4,3-b]indol-5(2H)-yl)-2-(pyridin-4-yl)propan-2-ol]	82	–	–
Cc1ccc2c(c1)c1c(n2CC(C)(O)c2ccncc2)CCN(CC(F)(F)F)C1 (stereo not drawn) [Compound 1-29, 1-(8-methyl-2-(2,2,2-trifluoroethyl)-3,4-dihydro-1H-pyrido[4,3-b]indol-5(2H)-yl)-2-(pyridin-4-yl)propan-2-ol]	–	11	inhibition at 0.1 µM [2]: 2%; inhibition at 0.1 µM [3]: 2%; inhibition at 0.1 µM [4]: 3%
CN1CCc2c(c3cc(Cl)ccc3n2CC(C)(O)c2cccnc2)C1 (stereo not drawn) [Compound 1-54, 1-(8-chloro-1,2,3,4-tetrahydro-2-methylpyrido[4,3-b]indol-5-yl)-2-(pyridin-3-yl)propan-2-ol]	77	–	–
Cc1ccc2c(c1)c1c(n2CC(O)c2ccc(F)cc2)CCN(C)C1 (stereo not drawn) [Compound 1-2, 2-(2,8-dimethyl-3,4-dihydro-1H-pyrido[4,3-b]indol-5(2H)-yl)-1-(4-fluorophenyl)ethanol]	91	–	–
CCC(O)(Cn1c2c(c3cc(Cl)ccc31)CN(C)CC2)c1ccncc1 (stereo not drawn) [Compound 1-23, 1-(8-chloro-2-methyl-3,4-dihydro-1H-pyrido[4,3-b]indol-5(2H)-yl)-2-(pyridin-4-yl)butan-2-ol]	–	62	–
Cc1ccc2c(c1)c1c(n2CC(O)(c2ccncc2)C(C)C)CCN(C)C1 (stereo not drawn) [Compound 1-22, 1-(2,8-dimethyl-3,4-dihydro-1H-pyrido[4,3-b]indol-5(2H)-yl)-3-methyl-2-(pyridin-4-yl)butan-2-ol]	–	71	–
CC(C)c1ccc2c3c(n(CC(C)(O)c4ccncc4)c2c1)CCN(C)C3 (stereo not drawn) [Compound 1-32, 1-(7-isopropyl-2-methyl-3,4-dihydro-1H-pyrido[4,3-b]indol-5(2H)-yl)-2-(pyridin-4-yl)propan-2-ol]	–	-6	inhibition at 0.1 µM [2]: 31%; inhibition at 0.1 µM [3]: -1%; inhibition at 0.1 µM [4]: -6%
CN1CCc2c(c3c(Cl)c(Cl)ccc3n2CC(C)(O)c2ccncc2)C1 (stereo not drawn) [Compound 1-18, 1-(8,9-dichloro-2-methyl-3,4-dihydro-1H-pyrido[4,3-b]indol-5(2H)-yl)-2-(pyridin-4-yl)propan-2-ol]	71	–	–
CN1CCc2c(c3cc(Cl)ccc3n2CC(O)(c2ccc(F)cc2)C2CCC2)C1 (stereo not drawn) [Compound 1-6, 2-(8-chloro-2-methyl-3,4-dihydro-1H-pyrido[4,3-b]indol-5(2H)-yl)-1-cyclobutyl-1-(4-fluorophenyl)ethanol]	97	–	–
CN1CCc2c(c3ccccc3n2CC(C)(O)c2ccncc2)C1 (stereo not drawn) [Compound 1-14, 1-(2-methyl-3,4-dihydro-1H-pyrido[4,3-b]indol-5(2H)-yl)-2-(pyridin-4-yl)propan-2-ol]	74	–	–
COc1cccc2c3c(n(CC(C)(O)c4ccncc4)c12)CCN(C)C3 (stereo not drawn) [Compound 1-31, 1-(6-methoxy-2-methyl-3,4-dihydro-1H-pyrido[4,3-b]indol-5(2H)-yl)-2-(pyridin-4-yl)propan-2-ol]	–	8	inhibition at 0.1 µM [2]: -1%; inhibition at 0.1 µM [3]: -7%; inhibition at 0.1 µM [4]: 5%
CN1CCc2c(c3cc(Cl)ccc3n2CC(C)(O)c2ccncn2)C1 (stereo not drawn) [Compound 1-26, 1-(8-chloro-2-methyl-3,4-dihydro-1H-pyrido[4,3-b]indol-5(2H)-yl)-2-(pyrimidin-4-yl)propan-2-ol]	–	23	–
Cc1ccc2c(c1)c1c(n2CC(C)(O)c2ccncn2)CCN(C)C1 (stereo not drawn) [Compound 1-25, 1-(2,8-dimethyl-3,4-dihydro-1H-pyrido[4,3-b]indol-5(2H)-yl)-2-(pyrimidin-4-yl)propan-2-ol]	–	17	–
Cc1ccc2c(c1)c1c(n2CC(C)(O)c2ccncc2)CCN(C)C1 (stereo not drawn) [Compound 1-52, 1-(1,2,3,4-tetrahydro-2,8-dimethylpyrido[4,3-b]indol-5-yl)-2-(pyridin-4-yl)propan-2-ol]	88	–	–
Cc1ccc2c(c1)c1c(n2CC(C)(O)c2ccncc2)CCN(C2CC2)C1 (stereo not drawn) [Compound 1-30, 1-(2-cyclopropyl-8-methyl-3,4-dihydro-1H-pyrido[4,3-b]indol-5(2H)-yl)-2-(pyridin-4-yl)propan-2-ol]	–	14	inhibition at 0.1 µM [2]: 6%; inhibition at 0.1 µM [3]: 1%; inhibition at 0.1 µM [4]: 4%
CN1CCc2c(c3cc(Cl)ccc3n2CC(C)(O)c2cnccn2)C1 (stereo not drawn) [Compound 1-27, 1-(8-chloro-2-methyl-3,4-dihydro-1H-pyrido[4,3-b]indol-5(2H)-yl)-2-(pyrazin-2-yl)propan-2-ol]	–	40	–
